Reference: patent publication US8273775B2, “Non-steroidal brassinosteroid mimetic” (priority 2006, dated 2012)

Assays:
[1] = tested on: group II GSK-3 kinases (ASKs) including BIN2; test: ASK kinase assay with MBP as substrate, group II; format: biochemical, Arabidopsis; conditions: 10 μM abrasin
Description: Coomassie staining was used as a loading control. b, Autoradiography of kinase assays with nine ASKs with MBP as a substrate in the presence or absence of 10 μM abrasin. The second member of group IV, ASKκ, had no kinase activity and was not included in the analysis. c, Autoradiography of kinase assays with AtMPK4, AtMPK6 and MBP as a substrate (left) and with AtAUR1 kinase and histone H3 as a substrate (right) in the presence or absence of 10 μM abrasin.
For in vitro kinase assays, MBP, MBP-BES1, and MBP-bes1 (20 ng each) were incubated with GST-BIN2 or GST-BRI1 kinase (200 ng each) in 20 μl of kinase buffer (20 mM Tris [pH 7.5], 100 mM NaCl, and 12 mM MgCl2) and 10 μCi ^32P-γATP. After incubation at 37° C. for 40 min, the reactions were stopped by adding 20 μl of 2×SDS buffer and boiling at 94° C. for 5 min. Proteins were resolved by a PAGE gel and phosphorylation was detected by exposing the dried gel to X-ray film. […]
Besides BIN2, nine additional GSK-3 kinases (also designated ASKs for Arabidopsis SHAGGY-related kinases) divided into four subgroups (I-IV) have been identified in Arabidopsis (Jonak and Hirt, 2002; Yoo et al. 2006). To determine the specificity of abrasin, its effect on the kinase activity of all ASKs was analyzed with myelin basic protein (MBP) as a general substrate. […]

[2] = tested on: Arabidopsis thaliana seedlings; test: Chemical genetics screening for brassinosteroid-related phenotypes; format: in vivo; conditions: young seedlings
Description: A commercial 10.000 compound library (DiverSet, ChemBridge, USA) was screened for brassinosteroid related phenotypes. Three to four Arabidopsis thaliana (L.) Heynh. seeds were sown in 96-well filterplates (Multiscreen HTS MSBVS1210, Millipore, USA) in liquid medium derived from standard Murashige and Skoog (MS) medium in a growth chamber under continuous light (110 μE.m^2. s^1 photosynthetically active radiation, supplied by cool-white fluorescent tungsten tubes; Osram) at 22° C. Three days after germination compounds were added to the 96-well plates at a final concentration of 50 μM. Plants were screened six days after germination for brassinosteroid-related phenotypes.
(§1) For further phenotypical analysis, all plants were grown on vertically oriented square plates (Greiner Labortechnik, Austria) with solid medium derived from standard Murashige and Skoog medium under the same conditions. For the hypocotyl-elongation assay, plants were grown in the dark at 22° C. under the same conditions.

[3] = tested on: BR-biosynthetic, BR signaling and BR-induced genes; test: Real time PCR of BR pathway genes; format: in vivo, Arabidopsis thaliana
Description: FIG. 7: Q-PCR analysis of genes involved in BR biosynthesis. WT Arabidopsis plants were treated with abrasin (indicated as I5) for 2 hours at a concentration of 30 μM and/or with CHX at a concentration of 30 μM and RNA was extracted from whole plants.
FIG. 8: A: Western Blot analysis of the BES1 protein in 35S:BES1:GFP plants treated with BL and abrasin (indicated as I5 throughout the figure) (A); MG132 with BL or abrasin (B); a time course with abrasin (C) and a concentration gradient with abrasin (D). B: Abrasin and BL induce similar transcriptional regulation of the BR pathway.
RNA was extracted with the RNeasy kit. Poly(dT) cDNA was prepared from […] of total RNA with Superscript III reverse transcriptase (Invitrogen) and quantified on an LightCycler 480 apparatus (Roche) with the SYBR Green I Master kit (Roche) according to the manufacturer's instructions. Target quantifications were performed with specific primer pairs designed with the Beacon Designer 4.0 (Premier Biosoft International). All PCRs were performed in triplicate.
The primers used to quantify gene expression levels were for BAS 1: 5′-[…]-3′ and 5′-[…]-3′; BR6Ox1: 5′-TGGCCAATCTTTGGCGAA-3′ and 5′-[…]-3′; BR6Ox2: 5′-[…]-3′ and 5′-[…]-3′; BRI1: 5′-[…]-3′ and 5′-[…]-3′; CPD: 5′-[…]-3′ and 5′-[…]-3′; DWF4: 5′-[…]-3′ and 5′-[…]-3′ ROT3: 5′-ATTGGCGCGTTCCTCAGAT-3′ and 5′-[…]-3′; BES1: 5′-[…]-3′ and 5′-[…]-3′; BIN2: 5′-[…]-3′ and 5′-[…]-3′; BSU 1: 5′-[…]-3′ and 5′-[…]-3′; BZR1: 5′-[…]-3′ and 5′-[…]-3′; CDKA1; 1: 5′-[…]-3′ and 5′-[…]-3′; EEF1α: 5′-[…]-3′ and 5′-[…]-3′; BKI1: 5′-GCTCCGGCGTCGATGA-3′ and 5′-[…]-3′.

[4] = tested on: cpd, det2-1, bri1-116 and bri1-301 mutants; test: Hypocotyl-elongation assay of dark-grown BR mutants; format: in vivo, Arabidopsis thaliana; conditions: grown in the dark, 50 μM abrasin
Description: FIG. 6: Rescue of dark-grown BL mutants after treatment with 50 μM of abrasin (I5).
as §1

[5] = tested on: bri1-116 plants grown in soil; test: Rescue of soil-grown mutants by watering; format: in vivo, Arabidopsis thaliana; conditions: watered with 2 ml 300 μM ABRASIN per day
Description: FIG. 15: Phenotype rescue of brit-116 and cpd mutants. (A.) The mutant and Col-0 plants were germinated on MS+DMSO medium till day 5 and afterwards transferred on MS supplemented with DMSO, 1 μM BL or 30 μM ABRASIN until day 11. Treatment with BL rescues the cpd mutant phenotype but not bri1-116 while ABRASIN rescues both mutants. […] BL: brassinolide; BIK: abrasin.
Col-0, the null BR signaling bri1-116 (Friedrichsen et al., 2000) and BR biosynthetic cpd (Szekeres et al., 1996) mutants were subjected to phenotype rescue analysis by treatments with BL and ABRASIN. As a negative control, dimethylsulfoxide (DMSO) was used. Plants were germinated in vitro for 5 days on ½ MS containing DMSO medium and from day 6th to day 11th they were transferred on medium supplemented with BL (10 nM, 100 nM, 1000 nM), ABRASIN (5 μM, 10 μM, 30 μM) or DMSO. Cotyledons and leaves were collected for flowcytometric analysis at the 11th day (i.e. 6 days of treatments). Samples for β-glucuronidase (GUS) assay were taken on day 6th (i.e. 1 day treatments), 8th (i.e. 3 days treatments), 10th (i.e. 5 days treatments). Rescue of soil-grown mutants at different growth stages was checked by watering bri1-116 and cpd mutants with either BL or 2 ml 300 μM ABRASIN per day.

## O=C(O)CCC(=O)Nc1ccc(Br)cn1 [abrasin, 4-[(5-bromo-2-pyridinyl)amino]-4-oxobutanoic acid]
[1]
  residual activity: 1-2
[2]
  elongation of leaves, petioles and the hypocotyl: strongly induced elongation of leaves, petioles and the hypocotyl in a dosage-dependent manner
[3]; 30 μM, 2 hours
  expression of genes downstream of the BRI1 receptor: all genes are upregulated
  expression of genes involved in biosynthesis and perception: regulated in the same way as a BL-treatment
[3]; 3-day-old seedlings, Abrasin 30 μM, 6 hours, compared to BL 1 μM
  RNA levels of BR biosynthetic, signaling and BR-induced genes: the expression profiles resembled closely those of BL treatment
[4]
  hypocotyl length of dark-grown mutants: all mutant lines had hypocotyls of normal length
[5]
  phenotype change of soil-grown mutant: sufficient to slightly change the phenotype of 1 month-old bri1-116 plants in a week
